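Grown in 96-well plates, cells were treated for 48 hours with each compound at five concentrations. Insufficient inhibition: endpoint recorded as highest concentration tested. The concentration for 50% growth inhibition is given as GI50. TGI is the concentration that stops growth completely.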
Key:
Test in all cases: DTP human tumour cell line panel, 48 h
SF-268 CNS = system: SF-268 CNS
NCI-H460 lung = system: NCI-H460 lung
COLO 205 colon = system: COLO 205 colon
MCF7 breast = system: MCF7 breast
SNB-19 CNS = system: SNB-19 CNS
OVCAR-5 ovarian = system: OVCAR-5 ovarian
OVCAR-3 ovarian = system: OVCAR-3 ovarian
SR leukemia = system: SR leukemia
SK-MEL-5 melanoma = system: SK-MEL-5 melanoma
BT-549 breast = system: BT-549 breast
SK-OV-3 ovarian = system: SK-OV-3 ovarian
ACHN renal = system: ACHN renal
A498 renal = system: A498 renal
CAKI-1 renal = system: CAKI-1 renal
OVCAR-8 ovarian = system: OVCAR-8 ovarian
SK-MEL-2 melanoma = system: SK-MEL-2 melanoma
UACC-62 melanoma = system: UACC-62 melanoma
A549 NSCLC = system: A549 NSCLC
T-47D breast = system: T-47D breast
SK-MEL-28 melanoma = system: SK-MEL-28 melanoma
LOX IMVI melanoma = system: LOX IMVI melanoma
SF-295 CNS = system: SF-295 CNS
HCT-116 colon = system: HCT-116 colon
MDA-MB-435 = system: MDA-MB-435
TK-10 renal = system: TK-10 renal
HCC-2998 colon = system: HCC-2998 colon
NCI-H522 lung = system: NCI-H522 lung
HOP-62 NSCLC = system: HOP-62 NSCLC
U251 CNS = system: U251 CNS
HS 578T breast = system: HS 578T breast
IGROV1 ovarian = system: IGROV1 ovarian
HCT-15 colon = system: HCT-15 colon
MOLT-4 leukemia = system: MOLT-4 leukemia
RPMI-8226 leukemia = system: RPMI-8226 leukemia
786-0 renal = system: 786-0 renal
M14 melanoma = system: M14 melanoma
CCRF-CEM leukemia = system: CCRF-CEM leukemia
HT29 colon = system: HT29 colon
NCI-H23 lung = system: NCI-H23 lung
DU-145 prostate = system: DU-145 prostate
UACC-257 melanoma = system: UACC-257 melanoma
HOP-92 NSCLC = system: HOP-92 NSCLC
RXF 393 renal = system: RXF 393 renal
HL-60(TB) leukemia = system: HL-60(TB) leukemia
K-562 leukemia = system: K-562 leukemia
PC-3 prostate = system: PC-3 prostate
SN12C renal = system: SN12C renal
EKVX NSCLC = system: EKVX NSCLC
MDA-MB-231 breast = system: MDA-MB-231 breast
SF-539 CNS = system: SF-539 CNS
MALME-3M melanoma = system: MALME-3M melanoma
OVCAR-4 ovarian = system: OVCAR-4 ovarian
SW-620 colon = system: SW-620 colon
MDA-N = system: MDA-N
KM12 colon = system: KM12 colon
SNB-75 CNS = system: SNB-75 CNS
NCI-H226 lung = system: NCI-H226 lung
UO-31 renal = system: UO-31 renal
NCI/ADR-RES ovarian = system: NCI/ADR-RES ovarian

## COc1ccc2cc(CNCCCCCCNC(=O)Nc3cccc4ccccc34)ccc2c1
SF-268 CNS
  TGI: > 100 µM
NCI-H460 lung
  TGI: > 100 µM
COLO 205 colon
  TGI: > 100 µM
MCF7 breast
  TGI: > 100 µM
SNB-19 CNS
  TGI: > 100 µM
OVCAR-5 ovarian
  TGI: > 100 µM
OVCAR-3 ovarian
  TGI: > 100 µM
SR leukemia
  TGI: > 100 µM
SK-MEL-5 melanoma
  TGI: > 100 µM
BT-549 breast
  TGI: > 100 µM
SK-OV-3 ovarian
  TGI: > 100 µM
ACHN renal
  TGI: > 100 µM
A498 renal
  TGI: > 100 µM
CAKI-1 renal
  TGI: > 100 µM
OVCAR-8 ovarian
  TGI: > 100 µM
SK-MEL-2 melanoma
  TGI: > 100 µM
UACC-62 melanoma
  TGI: > 100 µM
A549 NSCLC
  TGI: > 100 µM
T-47D breast
  TGI: > 100 µM
SK-MEL-28 melanoma
  TGI: > 100 µM
LOX IMVI melanoma
  TGI: > 100 µM
SF-295 CNS
  TGI: > 100 µM
HCT-116 colon
  TGI: > 100 µM
MDA-MB-435
  TGI: > 100 µM
TK-10 renal
  TGI: > 100 µM
HCC-2998 colon
  TGI: > 100 µM
NCI-H522 lung
  TGI: > 100 µM
HOP-62 NSCLC
  TGI: > 100 µM
U251 CNS
  TGI: > 100 µM
HS 578T breast
  TGI: > 100 µM
IGROV1 ovarian
  TGI: > 100 µM
HCT-15 colon
  TGI: > 100 µM
MOLT-4 leukemia
  TGI: > 100 µM
RPMI-8226 leukemia
  TGI: > 100 µM
786-0 renal
  TGI: > 100 µM
M14 melanoma
  TGI: > 100 µM
CCRF-CEM leukemia
  TGI: > 100 µM
HT29 colon
  TGI: > 100 µM
NCI-H23 lung
  TGI: > 100 µM
DU-145 prostate
  TGI: > 100 µM
UACC-257 melanoma
  TGI: > 100 µM
HOP-92 NSCLC
  TGI: > 100 µM
RXF 393 renal
  TGI: > 100 µM
HL-60(TB) leukemia
  TGI: > 100 µM
K-562 leukemia
  TGI: > 100 µM
PC-3 prostate
  TGI: > 100 µM
SN12C renal
  TGI: > 100 µM
EKVX NSCLC
  TGI: > 100 µM
MDA-MB-231 breast
  TGI: > 100 µM
SF-539 CNS
  TGI: > 100 µM
MALME-3M melanoma
  TGI: > 100 µM
OVCAR-4 ovarian
  TGI: > 100 µM
SW-620 colon
  TGI: > 100 µM
MDA-N
  TGI: > 100 µM
KM12 colon
  TGI: > 100 µM
SNB-75 CNS
  TGI: > 100 µM
NCI-H226 lung
  TGI: > 100 µM

## O=C(O)CN(CCN(CC(=O)O)CC(=O)O)CC(=O)O.[Cu+2].[Na+]
SF-268 CNS
  GI50: > 100 µM
  TGI: > 100 µM
NCI-H460 lung
  GI50: > 100 µM
  TGI: > 100 µM
COLO 205 colon
  GI50: > 100 µM
  TGI: > 100 µM
MCF7 breast
  GI50: > 100 µM
  TGI: > 100 µM
SNB-19 CNS
  GI50: > 100 µM
  TGI: > 100 µM
OVCAR-5 ovarian
  GI50: > 100 µM
  TGI: > 100 µM
OVCAR-3 ovarian
  GI50: 19.2 µM
  TGI: 51.8 µM
SK-MEL-5 melanoma
  GI50: > 100 µM
  TGI: > 100 µM
BT-549 breast
  GI50: > 100 µM
  TGI: > 100 µM
SK-OV-3 ovarian
  GI50: 23.5 µM
  TGI: 65.2 µM
ACHN renal
  GI50: > 100 µM
  TGI: > 100 µM
A498 renal
  GI50: > 100 µM
  TGI: > 100 µM
CAKI-1 renal
  GI50: > 100 µM
  TGI: > 100 µM
OVCAR-8 ovarian
  GI50: > 100 µM
  TGI: > 100 µM
SK-MEL-2 melanoma
  GI50: > 100 µM
  TGI: > 100 µM
UACC-62 melanoma
  GI50: > 100 µM
  TGI: > 100 µM
A549 NSCLC
  GI50: > 100 µM
  TGI: > 100 µM
T-47D breast
  GI50: > 100 µM
  TGI: > 100 µM
SK-MEL-28 melanoma
  GI50: > 100 µM
  TGI: > 100 µM
LOX IMVI melanoma
  GI50: > 100 µM
  TGI: > 100 µM
SF-295 CNS
  GI50: 22.3 µM
  TGI: 63.3 µM
HCT-116 colon
  GI50: > 100 µM
  TGI: > 100 µM
MDA-MB-435
  GI50: > 100 µM
  TGI: > 100 µM
TK-10 renal
  GI50: > 100 µM
  TGI: > 100 µM
HCC-2998 colon
  GI50: > 100 µM
  TGI: > 100 µM
NCI-H522 lung
  GI50: > 100 µM
  TGI: > 100 µM
HOP-62 NSCLC
  GI50: 26.2 µM
  TGI: 79.5 µM
U251 CNS
  GI50: > 100 µM
  TGI: > 100 µM
HS 578T breast
  GI50: > 100 µM
  TGI: > 100 µM
UO-31 renal
  GI50: > 100 µM
  TGI: > 100 µM
IGROV1 ovarian
  GI50: > 100 µM
  TGI: > 100 µM
NCI/ADR-RES ovarian
  GI50: > 100 µM
  TGI: > 100 µM
HCT-15 colon
  GI50: > 100 µM
  TGI: > 100 µM
MOLT-4 leukemia
  GI50: > 100 µM
  TGI: > 100 µM
RPMI-8226 leukemia
  GI50: > 100 µM
  TGI: > 100 µM
786-0 renal
  GI50: > 100 µM
  TGI: > 100 µM
M14 melanoma
  GI50: > 100 µM
  TGI: > 100 µM
CCRF-CEM leukemia
  GI50: > 100 µM
  TGI: > 100 µM
HT29 colon
  GI50: > 100 µM
  TGI: > 100 µM
NCI-H23 lung
  GI50: > 100 µM
  TGI: > 100 µM
DU-145 prostate
  GI50: > 100 µM
  TGI: > 100 µM
UACC-257 melanoma
  GI50: > 100 µM
  TGI: > 100 µM
RXF 393 renal
  GI50: > 100 µM
  TGI: > 100 µM
HL-60(TB) leukemia
  GI50: > 100 µM
  TGI: > 100 µM
K-562 leukemia
  GI50: > 100 µM
  TGI: > 100 µM
PC-3 prostate
  GI50: > 100 µM
  TGI: > 100 µM
SN12C renal
  GI50: > 100 µM
  TGI: > 100 µM
EKVX NSCLC
  GI50: > 100 µM
  TGI: > 100 µM
MDA-MB-231 breast
  GI50: > 100 µM
  TGI: > 100 µM
SF-539 CNS
  GI50: > 100 µM
  TGI: > 100 µM
MALME-3M melanoma
  GI50: > 100 µM
  TGI: > 100 µM
OVCAR-4 ovarian
  GI50: > 100 µM
  TGI: > 100 µM
SW-620 colon
  GI50: > 100 µM
  TGI: > 100 µM
MDA-N
  GI50: > 100 µM
  TGI: > 100 µM
KM12 colon
  GI50: > 100 µM
  TGI: > 100 µM
SNB-75 CNS
  GI50: > 100 µM
  TGI: > 100 µM
NCI-H226 lung
  GI50: > 100 µM
  TGI: > 100 µM

Reference: PubChem BioAssay (NCI)
